# Entries after “also recorded” stand apart in the source; their conditions may differ.
# Assays:
# [1] = tested on: expression of firefly luciferase under the control of the PgyrA (screen for DNA gyrase inhibitors); assay: Firefly luciferase expression from PgyrA divergently coupled to IPTG-induced PT7Al/O4 (luciferase assay); type: cell-based, E. coli; conditions: for expression of firefly luciferase (other antibiotics): FIG. 12F, antibiotics that are not gyrase inhibitors; for expression of firefly luciferase of FL #1181: FL #1181, in the presence of IPTG, FIG. 12E
# Description: (§1) FIGS. 5A-5D. (FIG. 5A) and (FIG. 5B) Inhibition of the supercoiling-sensitive PgyrA by E. coli […] on the chromosome. E. coli strains FL1181 (MG1655(DE3)ΔlacZ attTn7::PT7Al/O4lacZ-PgyrAluc; squares) and FL1182 (VS111(DE3)ΔlacZ attTn7::PT7Al/O4lacZ-PgyrAluc; circles) were used. The activities of β-galactosidase (Miller's units) and firefly luciferase (RLU) were plotted against the IPTG concentration added to the cell cultures. […] Overnight cell cultures were diluted 100-fold and grown until OD600 reached 0.2. Then 0.5 mM of IPTG and various concentrations of ciprofloxacin or other antibiotics were added to the cell cultures. After additional 30 min incubation, the activities of β-galactosidase and firefly luciferase were measured as described under Materials and Methods. (FIG. 5C) Ciprofloxacin inhibited the expression of β-galactosidase.
# Briefly, a 5.1 kb DNA fragment carrying the divergently coupled PgyrA and PT7Al/O4 promoters with the luc and lacZ genes was inserted to the attTn7 site of the E. coli chromosome (84 min of the chromosome) to generate FL1181 and FL1182. In both strains, the IPTG-inducible PT7Al/O4 controls the expression of β-galactosidase. Using similar approach, the following E. coli strains were generated: FL1181, FL1182, FL1198, FL1199, FL1200, FL1202, FL1203, and FL1204.
# Luciferase Assay was used to verify the expression of luciferase in various E. coli strains carrying different plasmid DNA templates. Briefly, E. coli cells carrying different plasmids were grown overnight in LB. Antibiotics were added to LB as needed. The overnight culture was then diluted (1:100) in fresh LB in the presence of different concentrations of IPTG, and grown until the OD600 nm reached approximately 0.5. Next, 50 μl of cells were mixed with 10 μl of 1 M K2HPO4 (pH 7.8) and 20 mM EDTA, quickly frozen in liquid nitrogen for 3 min, and equilibrated to room temperature for 30 min to yield about 60 μl of cell lysate. Then, the cell lysate was added with 300 μl freshly prepared lysis mix containing 1×cell culture lysis reagent (CCLR), 1.25 mg/ml lysozyme, and 2.5 mg/ml BSA, and incubated for 10 min at room temperature. Finally, 100 μl of Luciferase Assay Reagent (Promega Corporation, Madison, Wis.) was added to 20 μl of the cell lysate and used for light measurement by using a Promega GloMax 20/20 Single-Tube Luminometer.
# [2] = tested on: expression of β-galactosidase (lacZ) under the control of PT7Al/O4; assay: β-galactosidase expression from PT7Al/O4 (Miller's assay); type: cell-based, E. coli; conditions: FL1181 and FL1182, 0.5 mM IPTG, 30 min incubation; FIG. 5C
# Description: as §1, with “β-galactosidase. […]” for “β-galactosidase.”
# The expression level of β-galactosidase was measured by Miller's assay as described by Miller et al. Briefly, 100 mL of LB was inoculated with 1 mL of overnight bacterial cell culture until OD600 reaches about 0.2. […] After cell debris was removed by centrifugation at 13,000 rpm for 1 min, OD420 and OD550 were measured in a Cary 50 spectrophotometer. β-Galactosidase activities (E) were calculated using the following equation: […]
Structure (SMILES),expression of firefly luciferase (other antibiotics) [1],expression of firefly luciferase of FL #1181 [1],expression of β-galactosidase [2],"expression of firefly luciferase ([1]; E. coli strains FL1181 and FL1182 (divergently coupled PgyrA and PT7Al/O4), in the presence of IPTG (0.5 mM), 30 min incubation, FIG. 5D)"
CC1(C)S[C@@H]2[C@H](NC(=O)[C@H](N)c3ccccc3)C(=O)N2[C@H]1C(=O)O [ampicillin],inhibited; also recorded: inhibition,,,
CCN1CCN(c2cc3c(cc2F)c(=O)c(C(=O)O)cn3C2CC2)CC1 [enrofloxacin],,stimulation,,
CN[C@@H]1[C@H](O)[C@H](NC)[C@H]2O[C@@]3(O)C(=O)C[C@@H](C)O[C@H]3O[C@@H]2[C@H]1O [spectinomycin],inhibition,,,
O=C(O)c1cn(C2CC2)c2cc(N3CCNCC3)c(F)cc2c1=O [ciprofloxacin],,stimulation,inhibited,substantially increased; also recorded: greatly enhanced; also recorded: specifically enhanced
CCn1cc(C(=O)O)c(=O)c2cc(F)c(N3CCNCC3)cc21 [norfloxacin],,stimulation,,
